Reference: patent US20110027809A1, “METHOD FOR EVALUATION OF DEGREE OF MALIGNANCY OF TUMOR CELL” (priority 2008, published 2011)

Tests used:
[1] = tested on: RTKs in cell membrane fraction MDA-MB-468; experiment: RTK activity of cell membrane fraction with or without inhibitor (ELISA, Biotin-poly(Glu, Tyr) substrate); type: biochemical; conditions: treatment solution containing 100 μM inhibitor, 100 μM ATP, FIG. 1
Method: (§1) Cultured cells (13 types: A-431, KF, MDA-MB-468, RMUG-L, BT-474, ES2, MDA-MB-453, SK-Br-3, SNG-S, K-562, MDA-MB-231, MCF7 and T47D) were respectively mixed with 1 ml of a homogenizing reagent (containing 20 mM HEPES pH7.4, 0.2% protease inhibitors (PI), 10% glycerol, 200 μM Na3VO4 and 50 mM NaF), pressurized with a pestle to break cell membrane and cell homogenate was obtained. The obtained cell homogenate was centrifuged (20,000×g, 20 min.), the supernatant was discarded and the pellet was collected. The collected pellet was added with a solubilizing solution (containing 20 mM HEPES pH7.4, 1% NP40, 0.2% PI, 10% glycerol, 200 μM Na3VO4 and 50 mM NaF), mixed, pressurized with a pestle to solubilize cell membrane and centrifuged (20,000×g, 20 min.). The supernatant was then collected as the cell membrane fraction, adjusted its total protein amount to 40 μg/ml and used for the following experiments.
(§2) The ELISA plate used was the avidin coated plate (NeutrAvidin HBC White 96-Well Plates With SuperBlock Blocking Buffer; PIERCE). Each well of the plate was washed three times with TBS-T (containing 25 mM Tris, 150 mM NaCl and 0.05% Tween-20). A substrate solution 1 (50 μl; TBS containing 1 μg/ml Biotin-poly(Glu, Tyr) substrate) was added to each well and the plate was incubated with gentle shaking at 25° C. for 1.5 hours. After the incubation, each well was washed three times with TBS-T. Thus, Biotin-poly(Glu, Tyr) substrate was bound to the surface of each well of the ELISA plate. This ELISA plate was used for the following enzyme reaction.
(§3) The cell membrane fractions (25 μl each) of the above tumor cells were placed in seven tubes, respectively. To six tubes were added 25 μl of a treatment solution (20 mM HEPES pH7.4, 20 mM MnCl2, 2 mM DTT, 1% NP40, 10% glycerol, 200 μM Na3VO4, 50 mM NaF, 100 μM ATP, 400 μM PPI (BIOMOL)) containing 100 μM PD153035, 25 μl of treatment solution containing 100 μM AG1478, 25 μl of the treatment solution containing 100 μM 4557W, 25 μl of the treatment solution containing 100 μM Src inhibitor, 25 μl of the treatment solution containing 100 μM PDGFR inhibitor and 25 μl of the treatment solution containing 100 μM VEGFR inhibitor, respectively, to contact the cell membrane fractions with RTK activity inhibitors. To the remained tube was added with 25 μl of the treatment solution without inhibitors. The thus obtained solutions are called as reaction solutions. In order to suppress the enzyme activity of RTKs, the above procedures were carried out at below 4° C.
(§4) Each reaction solution (50 μl was distributed to each well of the ELISA plate prepared as above, and the plate was incubated at 25° C. for about 30 minutes to bring the cell membrane fractions having contacted or not with RTK activity inhibitors into contact with the substrate. After the incubation, each well was added with 100 μl of a reaction termination solution (TBS-T containing 5 mM EDTA) and washed three times with TBS-T. Each well was then washed with 300 μl of StartingBlock T20 (TBS) Blocking Buffer (PIERCE). After washing, each well was added with 100 μl of HRP-labeled primary antibody (p-Tyr (PY20), sc-508 HRP (SANTA Cruz Biotechnology), an antibody recognizing a phosphorylated tyrosine residue) diluted to 1000-fold with StartingBlock T20 (TBS) Blocking Buffer, and the plate was incubated with gentle shaking at 25° C. for about 1.5 hours. After the incubation, wells were washed for five times with TBS-T. After washing, each well was added with 150 μl of chemiluminescent substrate (SuperSignal ELISA PICO (PIERCE)), and after 5 min., luminescence was measured with a microplate reader GENios (TECAN) to measure RTK activities. […]

MDA-MB-468 tumor = experiment: Tumor mass of MDA-MB-468 tumor in mice; type: in vivo, mice (BALB/c nu/nu); conditions: 30 mg/kg/day injected for 7 days, Days 3, 5, 8 relative to Day 1, FIG. 4
Method: MDA-MB-468 cells were cultured in a medium (DMEM-F12 (Sigma) containing 10% FBS (Hyclone)) until cells become 80% confluent in a 225-cm^2 flask. The obtained cultured cells were suspended in 100 μl of DMEM-F12 at about 1×10^7 cells to obtain a MDA-MB-468 cell suspension.
Fat pad of 10-week-old female mice (BALB/c nu/nu) was injected with 100 μl of the MDA-MB-468 cell suspension. After 14 days, the growth of tumor in mice was confirmed. Thus, tumor was allowed to be formed in three mice.
At 14 days after the injection of the MDA-MB-468 cell suspension, an inhibitor solution was injected to the mouse having tumor. Specifically, AG1478 was dissolved in 100 μl of dimethylsulfoxide (DMSO, Sigma) to obtain a inhibitor solution 1. The mouse was injected with the inhibitor solution 1 so that it received the inhibitor at a dose of 30 mg/kg/day. The inhibitor solution 1 was injected for consecutive 7 days. 4557W was dissolved in DMSO to obtain an inhibitor solution 2. […]
On Day 1, the mice were injected with the inhibitor solutions. On Days 1, 3, 5, and 8, the tumor mass (mm^3) in mice was measured. The tumor mass was calculated from the longitudinal and transverse diameters of the tumor measured, assuming that the shape of the tumor is an oval sphere.
The tumor mass of the mouse injected with DMSO was measured in a similar manner. […]

BT-474 cells = experiment: VEGF secretion ability (Human VEGF Quantikine ELISA); type: cell-based; conditions: 1 μM inhibitor, 4 hours, FIG. 6
Method: (§5) The VEGF secretion ability was measured as follows. Cultured cells of MDA-MB-468, BT-474, MCF7 and MDA-MB-231 were seeded in a 6-well plate (Corning) at 1×10^6 cells/well and cultured at 37° C. in a medium (10% FBS). After 24 hours, the medium is changed to a serum free medium and the culture was continued for further 18 hours. The serum free medium used was DMEM/F12 (SIGMA) or RPMI1640 (SIGMA) supplemented with the antibiotics Antibiotic-Antimycotic (100×) (GIBCO). Thereafter, the medium was changed to the medium (10% FBS) containing 1 μM inhibitor in DMSO (PD153035, AG1478, PDGFR inhibitor or VEGFR inhibitor) and the culture was continued for additional 4 hours. The cell supernatant was then collected. The amount of VEGFs in the supernatant was measured with Human VEGF Quantikine ELISA Kit (R&D system) according to the attached protocol.
(§6) The control experiment was carried out with DMSO only instead of the inhibitor.
(§7) In FIG. 6, the y-axis corresponds to VEGF concentration (pg/ml), which reflects the amount of VEGFs secreted from the cells. In FIG. 6, “DMSO”, “PD”, “AG”, “PDGFR” and “VEGFR” represent the results of control, and the cells treated with PD153035, AG1478, PDGFR inhibitor and VEGFR inhibitor, respectively.

MDA-MB-468 cells = experiment: as above; type: cell-based; conditions: 1 μM inhibitor, 4 hours, FIG. 6
Method: as §5, §6, §7

[2] = tested on: RTKs in cell membrane fraction MCF7; experiment: RTK activity of cell membrane fraction with or without inhibitor (ELISA, Biotin-poly(Glu, Tyr) substrate); type: biochemical; conditions: treatment solution containing 100 μM inhibitor, 100 μM ATP, FIG. 2
Method: as §1, §2, §3, §4

[3] = tested on: RTKs in cell membrane fraction MDA-MB-231; experiment: as above; type: biochemical; conditions: treatment solution containing 100 μM inhibitor, 100 μM ATP, FIG. 2
Method: as §1, §2, §3, §4

[4] = tested on: RTKs in cell membrane fraction BT-474; experiment: as above; type: biochemical; conditions: treatment solution containing 100 μM inhibitor, 100 μM ATP, FIG. 1
Method: as §1, §2, §3, §4

tumor cell line (A-431) = conditions: A-431, highest expression level of HER1; Non-Patent Document 1; cited from earlier work

In the case of `COc1cc2ncnc(Nc3ccc(OCc4ccccc4)cc3)c2cc1OC` [4557W], the “RTK activity in the presence of the inhibitor (relative to control RTK activity)” value [1] is reported as “decreased” and the “increase in the tumor mass” value (MDA-MB-468 tumor) is reported as “suppressed”.

For `COc1cc2ncnc(Nc3cccc(Cl)c3)c2cc1OC` [AG1478], the “VEGF secretion amount compared to the control value” (BT-474 cells) was “decreased”, the “VEGF secretion amount compared to the control value” (MDA-MB-468 cells) was “decreased” and the “RTK activity in the presence of the inhibitor (relative to control RTK activity)” value [1] was “decreased”. The “RTK activity in the presence of the inhibitor (relative to control RTK activity)” value [2] was “not decreased”, the “RTK activity in the presence of the inhibitor (relative to control RTK activity)” value [3] was “not decreased” and the “RTK activity in the presence of the inhibitor (relative to control RTK activity)” value [4] was “decreased”. The “increase in the tumor mass” value (MDA-MB-468 tumor) was “suppressed”.

For `COc1cc2ncnc(Nc3ccc(F)c(Cl)c3)c2cc1OCCCN1CCOCC1` [Iressa, gefitinib], the “proliferation of the tumor cell line” value (tumor cell line (A-431)) is listed as “suppressed at the highest degree”.

With `COc1cc2ncnc(Nc3cccc(Br)c3)c2cc1OC` [PD153035] the “VEGF secretion amount compared to the control value” (BT-474 cells) was “decreased”, the “VEGF secretion amount compared to the control value” (MDA-MB-468 cells) was “decreased” and the “RTK activity in the presence of the inhibitor (relative to control RTK activity)” value [1] was “decreased”. The “RTK activity in the presence of the inhibitor (relative to control RTK activity)” value [2] was “not decreased”, the “RTK activity in the presence of the inhibitor (relative to control RTK activity)” value [3] was “not decreased” and the “RTK activity in the presence of the inhibitor (relative to control RTK activity)” value [4] was “decreased”.
